Molecules are shown by their SMILES.

The target in experiment [1] is T1, dopamine uptake, rat reuptake transporter (synaptosomes from male Wistar rat striatum) (Rattus norvegicus, UniProt P23977).
T1 construct: synaptosomes isolated in a 0.32 M sucrose buffer from a male Wistar rat striatum; from tissue; host or cells: male Wistar rat striatum synaptosomes
The experiment is described as follows: Dopamine functional uptake assay for rat reuptake transporter (synaptosomes). In kind it is biochemical. As to conditions: for IC50: rat synaptosomes, [3H]-dopamine uptake, read-out: Inhibition of monoamine uptake, Rat DA, IC50.
Procedure: (§1) The concentrations of radioligand employed in the assays were at or below the KM for the monoamine substrates with their cognate transporters. Compounds were tested at 5 to 10 different concentrations in duplicate in order to obtain full inhibition curves.
Quantification of dopamine uptake was performed using synaptosomes isolated in a 0.32 M sucrose buffer from a male Wistar rat striatum. The uptake of radiolabelled dopamine by synaptosomes (20 μg of proteins/point) was allowed by incubating them for 15 minutes at 37° C. in the presence of test compounds and [^3H]-dopamine (0.1 μCi/point). The experiment was performed in a deep well.
Synaptosomes and [^3H]-dopamine were prepared in a Krebs buffer pH 7.4 containing 25 mM NaHCO3, 11 mM glucose and 50 μM ascorbic acid. This incubation buffer was oxygenated for 5 minutes before incubation. Basal control was incubated for 15 minutes at 4° C. in order to avoid any uptake. Following this incubation, the uptake was stopped by filtration through a unifilter 96-wells GFB Packard plate washed with Krebs buffer containing 25 mM NaHCO3in order to eliminate free [^3H]-dopamine. The radioactivity associated to the synaptosomes retained onto the unifilter corresponding to the uptake was then measured with a microplate scintillation counter (Topcount, Packard) using a scintillation fluid.

The target in experiment [2] is 5-HT uptake, rat reuptake transporter (synaptosomes from male Wistar rat cortex) (Rattus norvegicus, UniProt P31652). To be noted: at a 10 μM concentration.
Procedure: as §1
Quantification of 5HT uptake was performed using synaptosomes isolated in a 0.32M sucrose buffer from a male Wistar rat cortex. The uptake of radiolabelled 5-HT by synaptosomes (100 μg of proteins/point) was allowed by incubating them in a well for 15 min at 37° C. in presence of test compounds and [^3H]5-hydroxytryptamine (0.1 μCi/point).
Synaptosomes and [^3H]5-hydroxytryptamine were prepared in a Krebs buffer pH 7.4 containing 25 mM NaHCO3, 11 mM mM glucose and 50 μM ascorbic acid. This incubation buffer was oxygenated during 5 minutes before incubation. Basal control was incubated for 15 minutes at 4° C. in order to avoid any uptake. […] The radioactivity associated to the synaptosomes retained on the unifilter corresponding to the uptake was then measured with a microplate scintillation counter (Topcount, Packard) using a scintillation fluid. Nonspecific binding was measured in the presence of an excess of cold, unlabeled ligand. […]
In experiment [3] the target is recombinant human dopamine transporter expressed in CHO-K1 cells (Homo sapiens, UniProt Q01959).
Procedure: as §1
Test compound and/or vehicle was preincubated with cells (4×10^5/ml) in modified Tris-HEPES buffer pH 7.1 for 20 minutes at 25° C. and 50 nM [^3H]Dopamine was then added for an additional 10 minute incubation period. A lysate was obtained from solubilized cells and the amount of tritium in the lysate was measured using a liquid scintillation counter to determine [^3H]Dopamine uptake. Reduction of [^3H]Dopamine uptake by 50 percent or more (≧50%) relative to 10 μM nomifensine indicates significant inhibitory activity.
Experiment [4] addresses norepinephrine uptake, rat reuptake transporter (synaptosomes from male Wistar rat hypothalamus) (Rattus norvegicus, UniProt Q63380). The experiment is described as follows: Norepinephrine functional uptake assay for rat reuptake transporter (synaptosomes). In kind it is biochemical. As to conditions: [3H]-norepinephrine uptake, read-out: Inhibition of monoamine uptake, Rat NE, IC50.
Procedure: as §1
Quantification of norepinephrine uptake was performed using synaptosomes isolated in a 0.32 M sucrose buffer from a male Wistar rat hypothalamus. The uptake of radiolabelled norepinephrine by synaptosomes (100 μg of proteins/point) was allowed by incubating them for 20 minutes at 37° C. in presence of test compounds and [^3H]-norepinephrine (0.1 μCi/point). The experiment was performed in a deep well.
Synaptosomes and [^3H]-norepinephrine were prepared in a Krebs buffer pH 7.4 containing 25 mM NaHCO3, 11 mM glucose and 50 μM ascorbic acid. This incubation buffer was oxygenated for 5 minutes before incubation. Basal control was incubated for 20 minutes at 4° C. in order to avoid any uptake. Following this incubation, the uptake was stopped by filtration through a unifilter 96-wells GFB. Packard plate washed with Krebs buffer containing 25 mM NaHCO3 in order to eliminate the free [^3H]-norepinephrine. The radioactivity associated to the synaptosomes retained onto the unifilter corresponding to the uptake was then measured with a microplate scintillation counter (Topcount, Packard) using a scintillation fluid.

norepinephrine uptake, rat reuptake transporter (synaptosomes from male Wistar rat hypothalamus), sequence (Q63380 1-617): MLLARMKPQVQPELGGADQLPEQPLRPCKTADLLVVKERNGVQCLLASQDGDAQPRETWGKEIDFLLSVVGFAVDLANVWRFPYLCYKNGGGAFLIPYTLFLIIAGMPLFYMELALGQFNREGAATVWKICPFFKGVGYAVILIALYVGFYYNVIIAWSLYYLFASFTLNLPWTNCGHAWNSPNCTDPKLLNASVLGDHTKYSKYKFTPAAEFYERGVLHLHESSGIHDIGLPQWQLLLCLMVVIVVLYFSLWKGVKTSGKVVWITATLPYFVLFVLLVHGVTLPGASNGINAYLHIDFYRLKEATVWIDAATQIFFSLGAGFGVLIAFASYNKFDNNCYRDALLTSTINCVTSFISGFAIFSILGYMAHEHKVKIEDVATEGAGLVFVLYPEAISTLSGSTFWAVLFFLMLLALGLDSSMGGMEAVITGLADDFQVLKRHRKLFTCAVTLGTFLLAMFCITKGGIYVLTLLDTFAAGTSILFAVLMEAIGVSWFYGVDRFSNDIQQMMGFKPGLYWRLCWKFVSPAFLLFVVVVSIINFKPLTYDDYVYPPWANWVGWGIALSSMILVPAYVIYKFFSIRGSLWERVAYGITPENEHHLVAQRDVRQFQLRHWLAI
T1 sequence (P23977 whole entry): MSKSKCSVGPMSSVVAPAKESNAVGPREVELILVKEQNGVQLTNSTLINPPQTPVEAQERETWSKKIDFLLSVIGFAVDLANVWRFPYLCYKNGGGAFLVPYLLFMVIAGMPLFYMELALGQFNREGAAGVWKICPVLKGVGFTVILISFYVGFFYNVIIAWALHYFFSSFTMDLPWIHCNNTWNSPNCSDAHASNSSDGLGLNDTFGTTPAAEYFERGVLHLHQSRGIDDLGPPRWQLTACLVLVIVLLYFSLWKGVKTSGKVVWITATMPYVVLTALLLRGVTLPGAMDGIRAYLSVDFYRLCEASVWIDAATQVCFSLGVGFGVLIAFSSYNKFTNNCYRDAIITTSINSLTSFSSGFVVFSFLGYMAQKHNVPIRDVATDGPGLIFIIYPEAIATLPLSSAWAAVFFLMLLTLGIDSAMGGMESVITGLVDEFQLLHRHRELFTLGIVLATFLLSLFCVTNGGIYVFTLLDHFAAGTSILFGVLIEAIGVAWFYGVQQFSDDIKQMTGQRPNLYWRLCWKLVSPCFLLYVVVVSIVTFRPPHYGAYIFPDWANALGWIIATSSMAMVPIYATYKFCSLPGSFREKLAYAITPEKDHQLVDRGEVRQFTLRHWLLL
recombinant human dopamine transporter expressed in CHO-K1 cells, sequence (Q01959 whole entry): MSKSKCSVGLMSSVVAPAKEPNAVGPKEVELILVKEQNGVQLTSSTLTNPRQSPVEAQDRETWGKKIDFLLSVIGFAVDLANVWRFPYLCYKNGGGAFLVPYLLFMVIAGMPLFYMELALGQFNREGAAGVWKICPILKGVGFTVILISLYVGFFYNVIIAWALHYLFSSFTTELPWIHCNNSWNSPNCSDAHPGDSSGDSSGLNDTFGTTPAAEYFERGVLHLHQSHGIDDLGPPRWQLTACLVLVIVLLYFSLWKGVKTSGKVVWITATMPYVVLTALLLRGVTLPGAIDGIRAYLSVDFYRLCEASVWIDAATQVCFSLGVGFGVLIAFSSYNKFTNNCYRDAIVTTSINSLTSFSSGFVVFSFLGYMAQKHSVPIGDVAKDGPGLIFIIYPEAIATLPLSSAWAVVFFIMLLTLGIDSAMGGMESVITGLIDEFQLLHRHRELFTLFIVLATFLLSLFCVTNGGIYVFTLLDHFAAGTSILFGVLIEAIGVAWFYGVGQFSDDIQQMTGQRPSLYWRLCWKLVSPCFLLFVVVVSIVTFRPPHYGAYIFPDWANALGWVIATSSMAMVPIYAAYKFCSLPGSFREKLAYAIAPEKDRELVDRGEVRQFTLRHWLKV
5-HT uptake, rat reuptake transporter (synaptosomes from male Wistar rat cortex), sequence (P31652 whole entry): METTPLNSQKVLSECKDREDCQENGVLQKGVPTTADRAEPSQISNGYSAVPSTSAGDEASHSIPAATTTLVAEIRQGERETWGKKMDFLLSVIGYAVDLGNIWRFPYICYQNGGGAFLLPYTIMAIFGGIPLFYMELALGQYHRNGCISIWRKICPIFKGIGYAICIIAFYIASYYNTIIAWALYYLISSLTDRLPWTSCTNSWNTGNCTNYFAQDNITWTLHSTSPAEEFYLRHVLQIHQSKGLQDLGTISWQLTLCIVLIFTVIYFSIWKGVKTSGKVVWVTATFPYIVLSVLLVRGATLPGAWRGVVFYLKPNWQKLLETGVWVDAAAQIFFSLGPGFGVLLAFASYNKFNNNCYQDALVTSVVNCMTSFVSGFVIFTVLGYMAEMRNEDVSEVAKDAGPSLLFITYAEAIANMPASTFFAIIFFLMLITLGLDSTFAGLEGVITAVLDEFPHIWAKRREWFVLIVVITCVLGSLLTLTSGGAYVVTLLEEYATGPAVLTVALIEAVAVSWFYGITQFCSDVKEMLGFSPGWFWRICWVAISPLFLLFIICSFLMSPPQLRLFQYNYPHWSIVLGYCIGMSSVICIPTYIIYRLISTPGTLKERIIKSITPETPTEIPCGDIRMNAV

As a reminder, the IC50 is the point on the concentration scale where inhibition reaches its midpoint. As for `CN(C)CC(c1ccc(O)cc1)C1(O)CCCCC1` (single isomer, unassigned; (+)) [(+)-O-desmethylvenlafaxine], the “Inhibition of functional reuptake, Rat DA (IC50 not given)” value in experiment [1] (at a 10 μM concentration) is “— (— indicates less than 50% inhibition of functional reuptake at a 10 μM concentration.)”. In experiment [2], the “Inhibition of functional reuptake, Rat 5-HT (IC50 not given)” value is listed as “— (— indicates less than 50% inhibition of functional reuptake at a 10 μM concentration.)”. In addition, the “Inhibition of functional reuptake, Human DA (IC50 not given)” value in experiment [3] was “— (key: — indicates less than 50% inhibition of functional reuptake at a 10 μM concentration.)”. Besides, the IC50 in experiment [4] was determined as 1.7 µM.

With `CN(C)CC(c1ccc(O)cc1)C1(O)CCCCC1` (single isomer, unassigned; (-)) [(−)-O-desmethylvenlafaxine], the IC50 came out at 5.7 µM in experiment [1] and 0.43 µM in experiment [4].

For `CN(C)CC(c1ccc(O)cc1)C1(O)CCCCC1` (racemic) [Racemic O-desmethylvenlafaxine, O-desmethylvenlafaxine], the figures for the IC50 in experiment [1] and in experiment [4] were 7.5 µM and 1.5 µM, respectively. Moreover, in experiment [3], the “Inhibition of functional reuptake, Human DA (IC50 not given)” value is “— (key: — indicates less than 50% inhibition of functional reuptake at a 10 μM concentration.)”.
